Data taken from patent US10010541B2, “Modulation of tissue transglutaminase activation in disease” (The Board of Trustees of the Leland Stanford Junior …, priority 2014, dated 2018).

Columns and labels:
TG2 [1] = target: T1, TG2 (Homo sapiens, UniProt P21980); assay: glutamate dehydrogenase-coupled deamidation assay, substrate Cbz-Gln-Gly; type: biochemical; settings: irreversible inhibition model, full progress curves
T1 sequence (P21980 1-687): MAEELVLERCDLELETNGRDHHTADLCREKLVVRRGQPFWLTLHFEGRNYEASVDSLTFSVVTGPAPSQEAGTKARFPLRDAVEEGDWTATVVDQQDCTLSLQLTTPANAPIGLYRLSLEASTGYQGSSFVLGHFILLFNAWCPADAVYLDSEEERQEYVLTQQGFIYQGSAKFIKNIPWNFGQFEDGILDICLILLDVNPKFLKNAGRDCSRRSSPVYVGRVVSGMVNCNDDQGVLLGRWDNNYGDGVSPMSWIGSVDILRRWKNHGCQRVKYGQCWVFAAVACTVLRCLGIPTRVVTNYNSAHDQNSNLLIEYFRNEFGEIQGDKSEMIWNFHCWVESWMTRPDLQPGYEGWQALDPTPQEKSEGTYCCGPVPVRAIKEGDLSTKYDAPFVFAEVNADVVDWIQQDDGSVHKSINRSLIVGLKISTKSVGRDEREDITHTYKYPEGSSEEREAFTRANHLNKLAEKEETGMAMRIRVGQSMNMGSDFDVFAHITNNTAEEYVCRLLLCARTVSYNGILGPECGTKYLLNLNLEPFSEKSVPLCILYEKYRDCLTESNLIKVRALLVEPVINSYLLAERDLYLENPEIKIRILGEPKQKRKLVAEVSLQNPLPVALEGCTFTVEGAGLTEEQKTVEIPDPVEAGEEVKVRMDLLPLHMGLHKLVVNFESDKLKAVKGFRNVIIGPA

TG1 = target: T2, TG1 (Homo sapiens, UniProt P22735); assay: glutamate dehydrogenase-coupled deamidation assay, substrate Cbz-Gln-Ser; type: biochemical; settings: irreversible inhibition model, full progress curves
T2 sequence (P22735 1-817): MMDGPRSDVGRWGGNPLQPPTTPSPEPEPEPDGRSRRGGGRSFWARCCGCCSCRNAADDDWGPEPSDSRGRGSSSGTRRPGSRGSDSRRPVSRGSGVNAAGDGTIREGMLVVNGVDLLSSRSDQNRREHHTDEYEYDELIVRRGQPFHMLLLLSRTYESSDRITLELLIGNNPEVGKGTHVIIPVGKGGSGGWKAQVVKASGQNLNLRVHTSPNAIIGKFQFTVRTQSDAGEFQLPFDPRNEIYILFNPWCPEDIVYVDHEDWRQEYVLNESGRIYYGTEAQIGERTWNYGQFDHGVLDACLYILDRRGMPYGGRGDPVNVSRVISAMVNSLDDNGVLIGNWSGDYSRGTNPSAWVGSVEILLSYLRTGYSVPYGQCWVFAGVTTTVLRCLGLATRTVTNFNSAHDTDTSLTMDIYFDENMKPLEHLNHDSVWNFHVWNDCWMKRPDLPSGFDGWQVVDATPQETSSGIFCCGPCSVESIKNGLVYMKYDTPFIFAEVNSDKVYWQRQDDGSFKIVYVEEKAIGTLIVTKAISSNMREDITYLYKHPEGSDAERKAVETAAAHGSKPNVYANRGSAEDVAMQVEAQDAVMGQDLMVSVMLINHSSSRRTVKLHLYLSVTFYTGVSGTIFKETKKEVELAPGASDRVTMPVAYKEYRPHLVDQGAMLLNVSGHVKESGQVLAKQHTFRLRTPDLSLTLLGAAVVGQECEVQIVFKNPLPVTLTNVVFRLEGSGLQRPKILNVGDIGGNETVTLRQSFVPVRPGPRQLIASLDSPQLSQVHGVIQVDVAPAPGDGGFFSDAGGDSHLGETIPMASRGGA

TG2 [2] = target: T3, TG2 (Mus musculus, UniProt P21981); assay: TG2 activity (5-BP probe) in tissues of LPS-induced septic mice; type: in vivo; settings: septic mice (LPS 5 mg/kg iv); 50 mg/kg intraperitoneally
T3 construct: host or cells: mice (in vivo)
T3 sequence (P21981 1-686): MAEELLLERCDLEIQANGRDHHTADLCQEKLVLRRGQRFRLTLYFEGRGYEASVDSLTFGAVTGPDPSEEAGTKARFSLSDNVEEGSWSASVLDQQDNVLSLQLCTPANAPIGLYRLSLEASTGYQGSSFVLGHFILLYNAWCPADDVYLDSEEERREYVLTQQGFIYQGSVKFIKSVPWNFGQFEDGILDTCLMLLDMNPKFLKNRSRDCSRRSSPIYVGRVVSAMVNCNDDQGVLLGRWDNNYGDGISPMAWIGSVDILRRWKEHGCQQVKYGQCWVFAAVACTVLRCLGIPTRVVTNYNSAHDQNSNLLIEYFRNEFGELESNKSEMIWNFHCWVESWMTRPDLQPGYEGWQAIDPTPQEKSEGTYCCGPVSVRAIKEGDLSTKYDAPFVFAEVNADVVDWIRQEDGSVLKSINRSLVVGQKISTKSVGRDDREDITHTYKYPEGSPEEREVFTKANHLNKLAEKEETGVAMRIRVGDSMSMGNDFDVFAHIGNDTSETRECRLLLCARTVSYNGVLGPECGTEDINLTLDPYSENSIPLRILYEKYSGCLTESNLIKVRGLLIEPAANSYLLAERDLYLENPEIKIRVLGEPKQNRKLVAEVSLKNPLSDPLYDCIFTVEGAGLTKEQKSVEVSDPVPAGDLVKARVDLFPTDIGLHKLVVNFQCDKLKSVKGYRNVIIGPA
Protocol: FIG. 2: TG2 is active in septic mice and can be inhibited by the intraperitoneal administration of 50 mg/kg CK996: Panels (A) through (C) depict tissues from the liver, lung and small intestine from septic male BL6 mice that were stained for TG2 protein (top row) or TG2 activity (middle row). The bottom row depicts the merged images from the TG2 protein and activity channel, respectively. Tissues from mice that had received the TG2 inhibitor CK996 are shown in the right set of images in each panel whereas tissues from control mice that received vehicle only are shown in the left set of images. Panel (D) quantifies the ratio of TG2 activity to TG2 protein signal intensity. All mice in this study received lipopolysaccharide (LPS, 5 mg/kg i.v., at t=0) and the TG2 activity-based probe 5-biotinamidopentylamine (5-BP, 100 mg/kg i.p., at t=0 and 90 min)(Dafik et al., 2012; Siegel et al., 2008). One cohort of mice additionally received an intraperitoneal dose of the TG2 inhibitor CK996 (50 mg/kg i.p., at t=0 and 60 min) in vehicle (PBS with 10% DMSO and 2% 2,6-di-(OMe)-beta-cyclodextrin), whereas the control mice received the vehicle alone. At 3 hours the mice were euthanized, tissues collected and frozen in OCT medium and then TG2 protein and activity (5-BP) stained, imaged and quantified as described in the literature (Diraimondo et al., 2013 ACS Chem. Biol.). […]

O=C(N[C@@H]1C[C@@H](C(=O)NC[C@@H]2CC(Br)=NO2)N(C(=O)OCc2cnc3ccccc3c2)C1)c1cccnc1 [Compound 5, (2S,4R)-quinolin-3-ylmethyl 2-((((S)-3-bromo-4,5-dihydroisoxazol-5-yl)methyl)carbamoyl)-4-(nicotinamido)pyrrolidine-1-carboxylate]
kinh/Ki TG2 (TG2 [1]): 1800 M⁻¹ s⁻¹
kinh/Ki TG1 (TG1): 333 M⁻¹ s⁻¹
TG2 activity in intestines, livers and lungs (TG2 [2]): fully suppressed
